In patent US12644001B2, “Fluorenyl cyanine dyes” (Biotium, Inc., priority 2020, dated 2026):

Test: Fluorescence properties (excitation and emission wavelength) of exemplary compounds
Type: physicochemical
Conditions: for λ^em (nm): emission wavelength; for λ^ex (nm): excitation wavelength
Source text: Exemplary compounds of the invention along with their known fluorescence properties are shown in Table 2 where λ^ex denotes excitation wavelength and λ^em denotes emission wavelength: […]

SMILES	λ^em (nm)	λ^ex (nm)
CC1(C)C(/C=C/C=C/C=C/C=C2\N(CCCCCC(=O)ON3C(=O)CCC3=O)c3cc4c(cc3C2(C)C)-c2ccc(S(=O)(=O)O)cc2C42CCCCC2)=[N+](CCCS(=O)(=O)O)c2cc3c(cc21)-c1ccc(S(=O)(=O)[O-])cc1C31CCCCC1 [Compound E7]	817 nm	793 nm
CC1(C)c2cc(S(=O)(=O)O)ccc2-c2cc3c(cc21)N(CCCCCC(=O)ON1C(=O)CCC1=O)\C(=C/C=C/C=C/C=C/C1=[N+](CCCS(=O)(=O)O)c2cc4c(cc2C12CCCCC2)-c1ccc(S(=O)(=O)[O-])cc1C4(C)C)C31CCCCC1 [Compound E6]	820 nm	795 nm
CC1(C)C2=CC3=[N+](CCN2c2ccccc21)c1cc2c(cc1C3(C)CCCCCC(=O)O)-c1ccccc1C2(C)C.[I-] (stereo not drawn) [Compound E1]	518 nm	445 nm
CCCOCCOCCOCCOCCOCCONC(=O)CCC1(CCC(=O)NCCOCCOCCOCCOCCOCCOC)c2cc3c(cc2-c2c1cc(S(=O)(=O)O)cc2S(=O)(=O)[O-])C(C)(C)C(/C=C/C=C/C=C1/N(CCCCCC(=O)ON2C(=O)CCC2=O)c2cc4c(cc2C1(C)C)-c1c(cc(S(=O)(=O)O)cc1S(=O)(=O)O)C4(CCC(=O)NCCOCCOCCOCCOCCOCCOC)CCC(=O)NOCCOCCOCCOCCOCCOCCC)=[N+]3CCCCCC(=O)ON1C(=O)CCC1=O (stereo not drawn) [Compound E15]	721 nm	696 nm
CC1(CCCCCC(=O)O)C(/C=C/C=C2\N(CCCS(=O)(=O)O)c3ccc(S(=O)(=O)[O-])cc3C2(C)C)=[N+](CCCS(=O)(=O)O)c2cc3c(cc21)-c1ccc(S(=O)(=O)O)cc1C3(C)C (stereo not drawn) [Compound E2]	602 nm	572 nm
CCCOCCOCCOCCOCCOCCOCCOCCOCCOCCOCCONC(=O)CCC1(CCC(=O)NCCOCCOCCOCCOCCOCCOCCOCCOCCOCCOCCOC)c2cc(S(=O)(=O)O)ccc2-c2cc3c(cc21)N(CCCCCC(=O)ON1C(=O)CCC1=O)/C(=C/C=C/C=C/C1=[N+](CCCCCC(=O)ON2C(=O)CCC2=O)c2cc4c(cc2C1(C)C)-c1ccc(S(=O)(=O)[O-])cc1C4(CCC(=O)NCCOCCOCCOCCOCCOCCOCCOCCOCCOCCOCCOC)CCC(=O)NOCCOCCOCCOCCOCCOCCOCCOCCOCCOCCOCCC)C3(C)C (stereo not drawn) [Compound E14]	721 nm	696 nm

The remaining lines, values ahead:

λ^em (nm)	λ^ex (nm)	SMILES
832 nm	823 nm	CCCOCCOCCOCCOCCOCCOCCOCCOCCOCCOCCONC(=O)CCC1(CCC(=O)NOCCOCCOCCOCCOCCOCCOCCOCCOCCOCCOCCC)c2cc(S(=O)(=O)[O-])ccc2-c2cc3c(cc21)[N+](CCCCCC(=O)ON1C(=O)CCC1=O)=C(/C=C/C1=C(Oc2ccc(S(=O)(=O)O)cc2)C(=C/C=C2/N(CCCCCC(=O)ON4C(=O)CCC4=O)c4cc5c(cc4C2(C)C)-c2ccc(S(=O)(=O)O)cc2C5(CCC(=O)NCCOCCOCCOCCOCCOCCOCCOCCOCCOCCOCCOC)CCC(=O)NCCOCCOCCOCCOCCOCCOCCOCCOCCOCCOCCOC)/CCC1)C3(C)C [Compound E16]
720 nm	686 nm	CC1(C)C(/C=C/C=C/C=C2\N(CCCCCC(=O)ON3C(=O)CCC3=O)c3cc4c(cc3C2(C)C)-c2c(cc(S(=O)(=O)O)cc2S(=O)(=O)O)C4(C)C)=[N+](CCCCCC(=O)ON2C(=O)CCC2=O)c2cc3c(cc21)-c1c(cc(S(=O)(=O)O)cc1S(=O)(=O)[O-])C3(C)C [Compound E19]
832 nm	823 nm	CCCOCCOCCOCCOCCOCCONC(=O)CCC1(CCC(=O)NOCCOCCOCCOCCOCCOCCC)c2cc3c(cc2-c2c1cc(S(=O)(=O)O)cc2S(=O)(=O)[O-])C(C)(C)C(/C=C/C1=C(Oc2ccc(S(=O)(=O)O)cc2)C(=C/C=C2/N(CCCCCC(=O)ON4C(=O)CCC4=O)c4cc5c(cc4C2(C)C)-c2c(cc(S(=O)(=O)O)cc2S(=O)(=O)O)C5(CCC(=O)NCCOCCOCCOCCOCCOCCOC)CCC(=O)NCCOCCOCCOCCOCCOCCOC)/CCC1)=[N+]3CCCCCC(=O)ON1C(=O)CCC1=O [Compound E17]
